# Read-outs that look alike come from different tables or passages of the source.
# Key:
# [1] = tested on: DNA strand breaks in L1210 cells; experiment: DNA strand break assay (alkaline elution); type: cell-based, murine; conditions: for effect on DNA strand break levels, compound alone: 24 hour incubation; for concentration above which strand breakage with TM increases significantly: 150 μM TM, 1 hour
# Procedure: (§1) Again using cultures of the murine leukaemia L1210 cell line, growth inhibition experiments were carried out to assess the cytostatic effects of the compounds and clonogenic survival assays were performed to assess cytotoxicity, especially in relation to use of the compounds in conjunction with DNA damaging cytotoxic agents such as cytotoxic antitumour drugs or high energy radiation.
# All the compounds were tested for their ability to produce strand breaks when used alone.
# [2] = tested on: L1210 cells; experiment: clonogenic survival assay with temozolomide (TM); conditions: for DEF10 (TM): 16 hours, ± S.E.
# Procedure: as §1
# After 7-10 days colonies were stained with 0.5 mg/ml MTT and counted by eye on a gridded light box. Survival curves were plotted and typical DEF10 values obtained are hereinafter given in Table II (DEF10 being defined as the ratio of the concentration of TM that reduces survival to 10% divided by the concentration of TM that reduces survival to 10% in the presence of a fixed concentration of PARP inhibitor). Each DEF10 value in Table II represents the average ratio±S.E. (standard error) derived from the averaged 10% survival for TM alone (675±31 μM from 22 independent survival curves) divided by individual 10% survival values from at least 3 independent survival curves performed in the presence of a fixed concentration of inhibitor.
# For NU1025 maximal potentiation of cytotoxicity was obtained by a concentration in the range of 50-100 μM, and was significant at doses as low as 10 μM.
# [3] = tested on: L1210 cells; experiment: repair of potentially lethal damage (PLD) after gamma ray irradiation; type: cell-based, murine; conditions: 8 Gray gamma ray; 10 mM 3AB or 200 μM NU1025
# Procedure: Repair of potentially lethal damage (PLD) occurs when cells are held in stationary-phase following initiation of PLD prior to allowing cell division to take place. In further typical experiments, L1210 cells were allowed to repair gamma ray PLD in the presence or absence of 3AB or NU1025 as follows. L1210 cells were maintained in culture until they had attained stationary phase (>10^6 cells/ml). They were diluted to […] in conditioned medium from stationary-phase cultures to prevent further cell division. Replicate 2 ml samples of cells in plastic bijoux were held on ice prior to and immediately following 8 Gray gamma ray irradiation. 1 ml of 3x final concentration of compounds 3AB or NU1025 made up in conditioned medium from stationary cultures was added (to give final concentrations of 10^6 cells/ml in 1% DMSO ±10 mM 3AB or 200 μM NU1025) and the cells were incubated at 37° C. for 0, 2 or 4 hours prior to resuspending in drug-free medium and seeding for colony formation. Unirradiated stationary phase cultures incubated at 37° C. for 0, 2 or 4 hours with 1% DMSO ±10 mM 3AB or 200 μM NU1025 were used as appropriate controls for determining relative cell survival. In the absence of PARP inhibitor cell survival increased with time allowed for PLD repair to take place. […]
# [4] = in vitro; conditions: mouse, l1210 cells
# Procedure: as §1
# [5] = tested on: L1210 cells; experiment: growth inhibition assay, alone or with temozolomide; type: cell-based, murine; conditions: Mus musculus, L1210, 48 h
# Procedure: as §1
# At this time one set of replicates would be counted using a Coulter counter (N0), and 48 hours later the remaining samples would be counted (N1). The percentage (%) growth inhibition of drug-treated samples could then be estimated. In drug combination experiments, where evidence of synergistic effects on cell growth or clonogenicity was being sought, a single, fixed concentration of a cytotoxic drug sample, e.g. temozolomide, would be taken as the control value.
# [6] = solubility check of test compound in assay buffer (DMSO solution added to isotonic buffer, microscope); type: physicochemical
# Description: (§2) The compounds being tested were generally made up as a concentrated solution in DMSO (Dimethyl sulphoxide). The solubility of the compound was then checked by adding a quantity of the DMSO solution to a quantity of the isotonic buffer, in the required final proportions that were to be used in carrying out the assay, and after an interval the solution was examined under a microscope for any signs of crystals forming.
# [7] = target: T1, PARP (Mus musculus, UniProt P11103); experiment: PARP inhibition assay ([32P]-NAD incorporation into TCA-precipitated poly(ADP-ribose) in permeabilised L1210 cells, oligonucleotide activated); type: biochemical, L1210 murine leukaemia cells
# T1 construct: endogenous in cells; host or cells: L1210 murine leukaemia cells, permeabilised by hypotonic buffer and cold shock
# Description: In principle, the PARP assay used relies upon activating endogenous PARP (as hereinafter described) in cells containing exogenous [^32 P]-NAD^+ introduced therein by suspending the cells in a solution of [^32 P]-NAD^+ to which they have been rendered permeable in an initial pretreatment step. The poly(ADP-ribose) which is then synthesised by the enzyme can be precipitated by trichloracetic acid (TCA) and the amount of radio-labelled ^32 p incorporated therein measured, e.g. using a scintillation counter, to give a measure of the activity of the PARP under the particular conditions of the experiment. By repeating the experiment following the same procedure, and under the same conditions, in the presence of each compound to be tested the reduction in enzyme activity, representative of the inhibitory effect of the test compound, can then be ascertained from the reduction, if any, of the amount of [^32 P] measured in the TCA precipitated poly(ADP-ribose).
# Thus, with a range of different compounds a set of comparative values for inhibitory activity can be obtained.
# In practice, L1210 murine leukaemia cells were used as the source of the PARP enzyme after being rendered permeable to exogenous [^32 P]NAD by exposure to hypotonic buffer and cold shock. […] This oligonucleotide sequence snaps back on itself to form a double-stranded molecule with a single blunt end and provides an effective substrate for activation of PARP.
# The experimental protocol adopted, in which a synthetic oligonucleotide as mentioned above is introduced as a specific activator of PARP, discriminates between PARP and other mono-ADP-ribosyltransferases in the cells.
# The oligonucleotide having the palindromic sequence […], synthesised by conventional means, was vacuum dried and stored as pellets in a freezer. Before use, it was made up to 200 μg/ml in 10 mM Tris/HCl, pH 7.8, with each pellet being dissolved completely in […] of buffer. The solution was then heated to 60° C. in a water bath for 15 minutes, and allowed to cool slowly to ensure correct reannealing. After adding 9.5 ml of buffer, the concentration was checked by measuring the optical density of a diluted sample at 260 nm. The main solution was then diluted to a concentration of 200 μg/ml and stored in 500 μl aliquots in a freezer, ready for use.
# The L1210 cells used as the source of the PARP enzyme were maintained as a suspension culture in RPMI medium+10% foetal bovine serum+glutamine and antibiotics (penicillin and streptomycin). HEPES and sodium bicarbonate were also added, and the cells were seeded in 100 ml of medium such that there would be a concentration of approximately 8×10^5 /ml at the time of carrying out an assay.
# as §2, with “The” for “The compounds being tested were generally made up as a concentrated solution in DMSO (Dimethyl sulphoxide). The”
# A desired quantity of the cells, ascertained by counting with a haemocytometer, was then centrifuged (1500 rpm in a "Europa" model 24M centrifuge for 5 minutes), the supernatant removed, and the pellets obtained were resuspended in 20 ml Dul A at 4° C. before centrifuging again at 1500 rpm and 4° C. After again removing the supernatant, the cells were resuspended at a concentration of 3×10^7 cells/ml in ice cold hypotonic buffer and left for 30 minutes on ice. Nine volumes were then added of ice cold isotonic buffer, and the cells, now rendered permeable to exogenous NAD^+, were then used within the next hour for carrying out an assay.
# [8] = half life of temozolomide in culture; type: physicochemical
# [9] = tested on: L1210 cells; experiment: clonogenic survival assay, gamma ray irradiation; type: cell-based, murine; conditions: 200 μM
# Procedure: In other clonogenic survival assays gamma ray irradiation was used to damage the cells. Typically, L1210 cells (3 ml, 4×10^3 /ml in plastic bijoux bottles) were irradiated at 4° C. with varying doses of gamma rays in the presence or absence of 10 mM 3AB or 200 μM NU1057 and a final concentration of 2% DMSO. The cells were then incubated at 37° C. for 2 hours in the continued presence or absence of PARP inhibitor prior to seeding for colony formation.
# [10] = read-out: IC50 INHIBITOR + 100 μM TM (growth inhibition)
# [11] = read-out: IC50 INHIBITOR ALONE (growth inhibition)
# [12] = 10 μM, read-out: % Inhibition (PARP)
# [13] = 30 μM, read-out: % Inhibition (PARP)
# T1 sequence (P11103 whole entry): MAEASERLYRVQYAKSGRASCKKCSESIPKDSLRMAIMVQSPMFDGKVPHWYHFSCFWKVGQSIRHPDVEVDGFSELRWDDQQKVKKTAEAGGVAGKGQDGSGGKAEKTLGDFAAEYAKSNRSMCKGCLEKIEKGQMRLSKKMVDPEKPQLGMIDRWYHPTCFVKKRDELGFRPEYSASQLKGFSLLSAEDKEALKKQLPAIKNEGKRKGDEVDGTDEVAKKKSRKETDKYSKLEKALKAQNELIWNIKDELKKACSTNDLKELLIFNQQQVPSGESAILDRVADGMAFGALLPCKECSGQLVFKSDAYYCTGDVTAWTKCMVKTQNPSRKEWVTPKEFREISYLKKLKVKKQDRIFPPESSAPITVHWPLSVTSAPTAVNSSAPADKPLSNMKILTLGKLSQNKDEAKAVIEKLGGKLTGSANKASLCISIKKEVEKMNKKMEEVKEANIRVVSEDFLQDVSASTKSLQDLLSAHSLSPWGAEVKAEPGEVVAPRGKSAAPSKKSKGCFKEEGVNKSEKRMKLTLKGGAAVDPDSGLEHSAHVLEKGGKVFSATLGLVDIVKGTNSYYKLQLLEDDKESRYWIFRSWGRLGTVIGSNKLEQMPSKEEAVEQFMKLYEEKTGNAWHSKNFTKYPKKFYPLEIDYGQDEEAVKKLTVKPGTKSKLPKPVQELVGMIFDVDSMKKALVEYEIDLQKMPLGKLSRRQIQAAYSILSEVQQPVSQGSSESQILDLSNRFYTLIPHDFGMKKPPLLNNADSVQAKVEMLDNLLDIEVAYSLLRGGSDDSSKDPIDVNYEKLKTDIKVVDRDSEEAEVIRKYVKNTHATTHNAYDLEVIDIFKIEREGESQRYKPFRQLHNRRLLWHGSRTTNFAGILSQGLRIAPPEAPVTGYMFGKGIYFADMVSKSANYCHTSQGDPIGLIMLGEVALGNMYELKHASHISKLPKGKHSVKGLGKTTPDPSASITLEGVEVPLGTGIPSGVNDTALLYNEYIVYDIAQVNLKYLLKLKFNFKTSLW
compound,measurement,setting,value
"Cc1nc2c(O)cccc2c(=O)[nH]1 [NU1025, 8-Hydroxy-2-methylquinazolin-4-[3H]-one]","effect on DNA strand break levels, compound alone",[1]; 1 mM,no significant effect on DNA strand break levels
same,DEF10 (TM),[2]; 10 μM inhibitor,2.0 ± 0.2
same,DEF10 (TM),[2]; 100 μM inhibitor,5.1 ± 0.7
same,effect on PLD repair in words,[3],blocked this repair
same,CC50 at 24 h,[4],1600 ± 100 µM
same,IC50,[5]; [10],40 µM
same,IC50,[5]; [11],410 µM
"NC(=O)c1cccc(OCc2ccc([N+](=O)[O-])cc2)c1 [NU1007, 3-(4-nitrobenzyloxy)benzamide]",insolubility at assay concentration,[6]; 30 μM,insol.
same,insolubility at assay concentration,[6]; 100 μM,insol.
same,inhibition at 10 µM,[7]; [12],26%
"NC(=O)c1cccc(OCc2ccc(Br)cc2)c1 [NU1014, 3-(4-Bromobenzyloxy)benzamide]",insolubility at assay concentration,[6]; 100 μM,insol.
same,inhibition at 10 µM,[7]; [12],23%
same,inhibition at 30 µM,[7]; [13],36%
"Cn1nnc2c(C(N)=O)ncn2c1=O [TM, temozolomide]",minimal effective concentration,"[1]; Mus musculus, L1210, 1 h, read-out: lowest TM level with detectable changes in DNA strand break levels",150 µM
same,rate of elution (DNA strand breakage) in words,"[1]; TM, 1 hour treatment",concentration-dependent increase in the rate of elution
same,half-life,[8],~40 min
same,IC50,"[2]; Mus musculus, L1210, 16 h, read-out: LD50 of TM alone",251 ± 13 µM
same,IC90,"[2]; Mus musculus, L1210, 16 h, read-out: concentration of TM alone that reduces survival to 10%",675 ± 31 µM
same,cytotoxicity at 150 µM,"[2]; Mus musculus, L1210, read-out: reduction of survival",~30%
same,IC50,[5]; read-out: IC50 of TM alone (inhibition of cell growth),361 ± 25 µM
"NC(=O)c1ccccc1 [BENZAMIDE, benzamide]",concentration above which strand breakage with TM increases significantly,[1],above 3 mM
same,"effect on DNA strand break levels, compound alone",[1]; 20 mM,no significant effect on DNA strand break levels
same,DEF10 (TM),[2]; 1 mM inhibitor,4.0 ± 0.7
same,DEF10 (TM),[2]; 3 mM inhibitor,6.9 ± 0.2
same,CC50 at 24 h,[4],6000 ± 1500 µM
same,IC50,[5]; [10],840 ± 120 µM
same,IC50,[5]; [11],2500 ± 300 µM
"CCCCCCCOc1cccc(C(N)=O)c1 [NU1044, 3-heptyloxybenzamide]",insolubility at assay concentration,[6]; 30 μM,insol.
same,insolubility at assay concentration,[6]; 100 μM,insol.
same,inhibition at 10 µM,[7]; [12],26%
"N#Cc1ccc(COc2cccc(C(N)=O)c2)cc1 [NU1037, 3-(4-cyanobenzyloxy)benzamide]",insolubility at assay concentration,[6]; 30 μM,insol.
same,insolubility at assay concentration,[6]; 100 μM,insol.
same,inhibition at 10 µM,[7]; [12],33%
"CCCCCCOc1cccc(C(N)=O)c1 [NU1043, 3-hexyloxybenzamide]",insolubility at assay concentration,[6]; 100 μM,insol.
same,inhibition at 10 µM,[7]; [12],15%
same,inhibition at 30 µM,[7]; [13],39%
"NC(=O)c1cccc(OCc2ccc(F)cc2)c1 [NU1015, 3-(4-Fluorobenzyloxy)benzamide]",insolubility at assay concentration,[6]; 100 μM,insol.
same,inhibition at 10 µM,"[7]; read-out: % Inhibition (PARP), 10 μM",20%
same,inhibition at 30 µM,"[7]; read-out: % Inhibition (PARP), 30 μM",52%
"NC(=O)c1cccc(OC/C=C/c2ccccc2)c1 [NU1050, 3-(Cinnamyloxy)benzamide]",insolubility at assay concentration,[6]; 30 μM,insol.
same,insolubility at assay concentration,[6]; 100 μM,insol.
same,inhibition at 10 µM,[7]; [12],23%
"O=c1[nH]c(-c2ccc([N+](=O)[O-])cc2)nc2c(O)cccc12 [NU1057, 8-Hydroxy-2-(4-nitrophenyl)quinazolin-4-one]",potentiation of gamma ray cytotoxicity in words,[9],significant potentiation of gamma ray cytotoxicity
same,DEF10 (gamma ray cytotoxicity),"[9]; 2% DMSO, 2 hours at 37° C.",1.1
same,IC50,[7],0.23 µM
same,PARP inhibitory activity in words,[7],potent PARP inhibitors
same,inhibition at 10 µM,[7]; [12],92%
NC(=O)c1cccc(N)c1 [3-aminobenzamide],concentration above which strand breakage with TM increases significantly,[1],> 5 mM
same,"effect on DNA strand break levels, compound alone",[1]; 20 mM,no significant effect on DNA strand break levels
same,DEF10 (TM),[2]; 1 mM inhibitor,2.4 ± 0.3
same,DEF10 (TM),[2]; 5 mM inhibitor,4.1 ± 0.4
same,DEF10 (TM),"[2]; 5 mM inhibitor, listed as 3AB",about 4
same,effect on PLD repair in words,[3],blocked this repair
same,CC50 at 24 h,[4],14000 ± 1000 µM
same,inhibition at 10 µM,[7]; [12],36%
same,inhibition at 30 µM,[7]; [13],63%
same,inhibition at 100 µM,"[7]; 100 μM, read-out: % Inhibition (PARP)",79%
same,IC50,[5]; [10],2500 ± 100 µM
same,IC50,[5]; [11],6700 ± 200 µM
"COc1ccc(COc2cccc(C(N)=O)c2)cc1 [NU1006, 3-(4-methoxybenzyloxy)benzamide]",insolubility at assay concentration,[6]; 100 μM,insol.
same,inhibition at 10 µM,[7]; [12],58%
same,inhibition at 30 µM,[7]; [13],74%

# Source: patent US5756510A, “Benzamide analogs useful as PARP (ADP-ribosyltransferase, ADPRT) DNA repair enzyme inhibitors” (Newcastle University Ventures Limited, priority 1994, dated 1998)
